Test results taken from patent US20230026271A1, “Piperazine Compounds for Inhibiting CPS1” (Eisai R&D Management Co., Ltd., priority 2019, published 2023).

Biological target: T1, CPS1 (Homo sapiens, UniProt P31327)
T1 construct: The full length, human CPS1 gene was cloned into pFastBac HTA; His6 (from the pFastBac HTA vector); made in house; host or cells: SF21 insect cells (baculovirus, Bac-to-bac)
T1 sequence (P31327 39-1500): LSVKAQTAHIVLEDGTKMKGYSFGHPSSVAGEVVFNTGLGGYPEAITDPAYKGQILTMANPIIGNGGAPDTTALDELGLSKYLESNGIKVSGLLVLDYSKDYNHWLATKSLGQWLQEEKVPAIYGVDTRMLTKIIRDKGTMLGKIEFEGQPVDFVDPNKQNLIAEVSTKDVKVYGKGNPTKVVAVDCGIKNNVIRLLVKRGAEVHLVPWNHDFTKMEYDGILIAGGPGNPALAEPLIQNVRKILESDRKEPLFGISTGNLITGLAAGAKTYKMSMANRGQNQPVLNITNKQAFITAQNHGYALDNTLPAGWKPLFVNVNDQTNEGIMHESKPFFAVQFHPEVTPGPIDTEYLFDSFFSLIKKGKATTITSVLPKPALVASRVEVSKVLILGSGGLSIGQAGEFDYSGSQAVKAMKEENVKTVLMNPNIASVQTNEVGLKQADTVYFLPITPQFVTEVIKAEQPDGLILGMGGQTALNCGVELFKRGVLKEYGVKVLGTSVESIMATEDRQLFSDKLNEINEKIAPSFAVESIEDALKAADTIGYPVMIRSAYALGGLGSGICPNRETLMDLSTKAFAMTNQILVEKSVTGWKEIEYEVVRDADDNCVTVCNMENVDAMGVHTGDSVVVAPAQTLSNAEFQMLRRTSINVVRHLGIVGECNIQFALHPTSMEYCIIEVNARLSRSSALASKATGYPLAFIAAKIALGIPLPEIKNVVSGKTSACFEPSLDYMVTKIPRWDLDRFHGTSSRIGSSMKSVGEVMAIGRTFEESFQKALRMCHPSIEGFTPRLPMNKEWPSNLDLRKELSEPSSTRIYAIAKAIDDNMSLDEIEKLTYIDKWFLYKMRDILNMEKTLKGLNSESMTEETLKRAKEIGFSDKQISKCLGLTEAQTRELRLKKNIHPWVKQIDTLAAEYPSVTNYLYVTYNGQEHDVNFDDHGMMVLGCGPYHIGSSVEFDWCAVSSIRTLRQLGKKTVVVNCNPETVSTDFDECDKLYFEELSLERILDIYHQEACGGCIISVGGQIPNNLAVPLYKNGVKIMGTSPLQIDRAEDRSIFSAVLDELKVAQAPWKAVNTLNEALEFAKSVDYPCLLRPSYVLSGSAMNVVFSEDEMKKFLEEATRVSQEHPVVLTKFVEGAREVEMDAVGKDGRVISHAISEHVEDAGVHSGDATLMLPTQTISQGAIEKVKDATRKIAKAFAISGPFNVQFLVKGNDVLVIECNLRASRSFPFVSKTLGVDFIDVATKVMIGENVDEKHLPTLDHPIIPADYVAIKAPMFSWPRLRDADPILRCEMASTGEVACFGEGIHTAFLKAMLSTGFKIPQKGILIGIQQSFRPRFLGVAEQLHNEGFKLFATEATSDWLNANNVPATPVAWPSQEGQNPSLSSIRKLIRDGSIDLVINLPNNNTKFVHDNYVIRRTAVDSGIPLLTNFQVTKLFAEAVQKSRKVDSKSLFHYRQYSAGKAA
Assay: ADP-Glo endpoint assay measuring the ATPase activity of CPS1
Assay type: biochemical
Conditions: geometric mean of a minimum of two values; 50 nM CPS1, 10 μM ATP, 0.2 mM NAG, 60 min at room temperature; read-out: ADPGlo IC50
Method in brief: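 Full-length human His-tagged CPS1 from SF21 insect cells, 50 nM, preincubated 20 min with compound in pH 7.0 HEPES buffer containing KHCO3, (NH4)2SO3, MgCl2 and 0.2 mM NAG. Reaction started with 10 μM ATP, 60 min at room temperature; ADP formed detected by ADP-Glo luminescence.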

IC50 [µM] | SMILES
2.78 | COc1ccc(C(=O)N2CCN(C(=O)c3ccc(OC)cc3F)[C@@H](C)C2)c(F)c1 [Compound 51, (S)-(2-Methylpiperazine-1,4-diyl)bis((2-fluoro-4-methoxyphenyl)methanone)]
5.21 | COc1ccc(C(=O)N2CCN(C(=O)c3ccc(OC)cc3F)C(C)C2)c(F)c1 (centres unmarked) [Compound 45, (2-Methylpiperazine-1,4-diyl)bis((2-fluoro-4-methoxyphenyl)methanone)]
0.414 | CCOc1ccc(C(=O)N2[C@H](C)CN(C(=O)c3ccc(OC)cc3F)C[C@H]2C)c(F)c1 [Compound 27, ((3R,5R)-4-(4-Ethoxy-2-fluorobenzoyl)-3,5-dimethylpiperazin-1-yl)(2-fluoro-4-methoxyphenyl)methanone]
3.79 | COc1ccc(C(=O)N2[C@H](C)CN(C(=O)c3ccc(O)cc3F)C[C@H]2C)c(F)c1 [Compound 65, ((2R,6R)-4-(2-fluoro-4-hydroxybenzoyl)-2,6-dimethylpiperzin-1-yl)(2-fluoro-4-methoxyphenyl)methanone]
34.1 | COc1ccc(C(=O)N2C[C@@H](C)N(C(=O)c3cccc(O)c3)[C@H](C)C2)c(F)c1 [Compound 85, ((2R,6R)-4-(2-fluoro-4-methoxybenzoyl)-2,6-dimethylpiperazin-1-yl)(3-hydroxyphenyl)methanone]
5.15 | COc1ccc(C(=O)N2C[C@@H](C)N(C(=O)c3cc(OC)ccc3F)[C@H](C)C2)c(F)c1 [Compound 67, ((2R,6R)-4-(2-fluoro-4-methoxybenzoyl)-2,6-dimethylpiperazin-1-yl)(2-fluoro-5-methoxyphenyl)methanone]
11.4 | COc1ccc(C(=O)N2C[C@@H](C)N(C(=O)c3ccc4cc(C)[nH]c4c3)[C@H](C)C2)c(F)c1 [Compound 43, ((3R,5R)-3,5-Dimethyl-4-(2-methyl-1H-indole-6-carbonyl)piperazin-1-yl)(2-fluoro-4-methoxyphenyl)methanone]
1.19 | COc1ccc(C(=O)N2C[C@@H](C)N(C(=O)c3cc(F)c(OC)cc3F)[C@H](C)C2)c(F)c1 [Compound 23, ((3R,5R)-4-(2,5-Difluoro-4-methoxybenzoyl)-3,5-dimethylpiperazin-1-yl)(2-fluoro-4-methoxyphenyl)methanone]

Second part, the compound before the results:

SMILES | IC50 [µM]
COc1ccc(OC)c2[nH]c(C(=O)N3CCN(C(=O)c4ccc5cc[nH]c5c4)CC3)cc12 [Compound 54, (4-(1H-indole-6-carbonyl)piperazin-1-yl)(4,7-dimethoxy-1H-indol-2-yl)methanone] | 2.12
COc1ccc(C(=O)N2[C@H](C)CN(C(=O)c3ccc4nc[nH]c4c3)C[C@H]2C)c(F)c1 [Compound 38, ((2R,6R)-4-(1H-Benzo[d]imidazole-5-carbonyl)-2,6-dimethylpiperazin-1-yl)(2-fluoro-4-methoxyphenyl)methanone] | 4.91
COc1ccc(C(=O)N2C[C@@H](C)N(C(=O)c3ccc(-c4ncc[nH]4)cc3)[C@H](C)C2)c(F)c1 [Compound 40, ((3R,5R)-4-(4-(1H-imidazol-2-yl)benzoyl)-3,5-dimethylpiperazin-1-yl)(2-fluoro-4-methoxyphenyl)methanone] | 7.53
COc1ccc(C(=O)N2C[C@@H](C)N(C(=O)c3ccc4ccn(C)c4c3)[C@H](C)C2)c(F)c1 [Compound 99, ((3R,5R)-3,5-dimethyl-4-(1-methyl-1H-indole-6-carbonyl)piperazin-1-yl)(2-fluoro-4-methoxyphenyl)methanone] | > 66.7
COc1ccc(C(=O)N2C[C@@H](C)N(C(=O)c3ccc4c(c3)CCCO4)[C@H](C)C2)c(F)c1 [Compound 74, ((3R,5R)-4-(chroman-6-carbonyl)-3,5-dimethylpiperazin-1-yl)(2-fluoro-4-methoxyphenyl)methanone] | 15.8
COc1ccc(C(=O)N2[C@H](C)CN(c3ncnc4cc(OC)ccc34)C[C@H]2C)c(F)c1 [Compound 62, (2-fluoro-4-methoxyphenyl)((2R,6R)-4-(7-methoxyquinazolin-4-yl)-2,6-dimethylpiperazin-1-yl)methanone] | 10.5
